According to the supplement of paper PMC10307832:

How the values were obtained:
Test in all cases: relative viability (nuclei count vs DMSO), 5 days (fraction); higher = more cells survive
[1] = compound: C1=CC=C2C(=C1)C=CC(=C2SSC3=C(C=CC4=CC=CC=C43)O)O [IPA-3]
Method in brief: (§1)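 In 1536-well plates, lung cancer cell lines rested overnight at 37 °C before five library-drug doses (not always all listed), √10 apart, were pinned onto vehicle-anchored plates. Nuclei were counted with MetaXpress from 4× Hoechst images taken after 5 days without medium change. Viability compares treated-well with vehicle-well nuclei as a median over plates, and plates needed control CV below 25% plus at least one doubling to pass.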

[2] = compound: Cc1ccc(-n2nc(C(C)(C)C)cc2NC(=O)Nc2ccc(OCCN3CCOCC3)c3ccccc23)cc1 [Doramapimod]
Method in brief: as §1

[3] = compound: Cn1c(Nc2ccc(C(F)(F)F)cc2)nc2cc(Oc3ccnc(-c4ncc(C(F)(F)F)[nH]4)c3)ccc21 [RAF265]
Method in brief: as §1

[4] = compound: Cc1ccc(-n2nc(C(C)(C)C)cc2NC(=O)Nc2ccc(OCCN3CCOCC3)c3ccccc23)cc1 [Doramapimod] + C[C@@H](Oc1cc(-c2cnn(C3CCNCC3)c2)cnc1N)c1c(Cl)ccc(F)c1Cl [Crizotinib] (partner 1 µM)
Method in brief: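 Nuclei were stained with Hoechst during a one-step fixation (final 0.05% Triton X-100, 1% formaldehyde, 1 ug/ml Hoechst) carried out 5 days after dosing, then counted on 4× images. The cells, lung cancer lines in 1536-well plates, had been dosed by pin tool the day after seeding with one drug alone or a fixed anchor-drug dose plus five library-drug doses (not always all listed) in √10 steps. Relative viability is the nuclei count in treated wells divided by that in vehicle wells, and each value is the median of duplicate plates.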

Cell Line	relative viability ([1]; 0.2 µM)	relative viability ([1]; 0.6325 µM)	relative viability ([1]; 2 µM)	relative viability ([1]; 6.325 µM)	relative viability ([1]; 20 µM)	relative viability ([2]; 0.02 µM)	relative viability ([2]; 0.06325 µM)	relative viability ([2]; 0.2 µM)	relative viability ([2]; 0.6325 µM)	relative viability ([2]; 2 µM)	relative viability ([3]; 0.01 µM)	relative viability ([3]; 0.03162 µM)	relative viability ([3]; 0.1 µM)	relative viability ([3]; 0.3162 µM)	relative viability ([3]; 1 µM)	relative viability ([4]; first compound 0.02 µM)	relative viability ([4]; first compound 0.06325 µM)	relative viability ([4]; first compound 0.2 µM)	relative viability ([4]; first compound 0.6325 µM)	relative viability ([4]; first compound 2 µM)
201T	0.998	0.975	0.958	0.993	1.09	1	1.02	0.975	1.15	0.957	1.04	0.99	1.02	0.977	0.992	1.03	1.06	0.993	1.09	1.01
A549	1.18	0.962	1.01	1.05	1.16	0.956	0.976	0.951	0.999	0.878	1.01	0.926	0.967	0.667	0.412	0.763	0.747	0.771	0.743	0.762
A-427	1.14	0.965	0.976	0.962	1.11	0.962	1.03	1.1		0.985	1.03	0.862	1.01	0.575	0.356	0.927	0.933	0.98		0.932
ABC-1	1.08	0.972	0.805	1.04	1.02	0.996	0.864	0.955	0.895	0.961	1.22	0.881	0.986	0.803	0.633	1.03	1.09	0.842	0.75	1.29
BEN	0.982	0.951	1.07	0.943	1.15	0.874	0.922	1	0.82	0.884	0.968	1.11	1.11	0.95	0.907	0.855	0.683	0.85	0.742	0.761
CAL-12T	1.15	0.846	0.967	0.93	1.03	0.995	0.976	1.03	1.01	0.931	1.08	0.955	0.936	0.723	0.603	0.687	0.726	0.746	0.635	0.727
COR-L23	1.15	0.912	1.11	0.923	0.982	1.01	1.08	0.981	0.964	0.949	1.19	0.92	0.879	0.74	0.626	0.705	0.573	0.571	0.651	0.667
COR-L 105	1.2	0.882	0.901	0.984	0.827	0.861	0.93	0.935	1.1	0.993	1.08	1.05	0.954	0.463	0.563	0.849	0.915	0.798	0.897	0.75
Calu-6	1.1	0.971	0.984	0.998	1.04	0.995	0.979	1.04	1.09	1.01	0.97	0.842	0.791	0.505	0.347	0.823	0.815	0.865	0.866	0.745
ChaGo-K-1	1.05	0.96	0.96	1.06	1.07	0.988	1.09	0.983	0.975	0.916	0.977	1.04	1.01	0.865	0.789	1.15	1.16	1.17		1.11
EBC-1	1.29	0.984	1.01	0.963	0.933	0.949	0.987	0.991	1.03	0.838	1.05	0.966	0.939	0.794	0.611	0.161	0.196	0.162	0.184	0.188
EKVX	1.08	0.994	1.05	1.01	1.32	0.971	0.968	0.876	1	0.952	1.11	0.988	1.09	0.573	0.796	0.986	0.98	0.822	0.951	0.918
EMC-BAC-2	1.02	1.05	1	1.02	1.09	1	1.2	1.01	0.954	0.863	0.94	0.885	0.639	0.467	0.236	0.716	0.758	0.792	0.771	0.699
EPLC-272H	1.04	0.96	1	0.905	1.1	0.929	0.899	1.01	0.7	0.837	0.895	0.734	0.688	0.469	0.356	0.942	0.975	1.17	0.974	0.972
H3255	1	0.973	0.895	0.986	1.22	1.05	0.981	0.96	0.968	0.933	1	1.05	1.03		0.67	0.919	0.785	0.893	0.851	0.852
HARA	1.28	0.977	1.04	1.05	1.21	1.02	0.948	0.811	1.19	0.754	1.07	0.982	0.949	0.693	0.584	1.27	0.966	0.965	1.08	0.992
